These results are taken from PMC4748415, “Impact of different cell penetrating peptides on the efficacy of antisense therapeutics for targeting intracellular pathogens” (Scientific Reports, 2016).

Values joined by “and” are separate entries in the source; they are usually repeats but may differ in a detail not shown here. Equal entries are not always repeated. “Also recorded” adds a separate entry of the source. Where two headings read alike, the source gives them in different places. Marks after values point to notes of the source that are not given here.

For series [1], the system named is mitochondrial biogenesis in J774A.1 cells. The series is described as follows: Mitobiogenesis assay (In-Cell ELISA, COX-I/SDH-A). The note with it: three days, tested at 0.1, 1, 10 and 20 μM, COX-I/SDH-A ratio. On the technique in general: In an ELISA, binding on a coated surface is turned into a signal by an enzyme label.
Procedure: To measure the effect of PNA on the mitochondrial biogenesis, In-Cell ELISA Kit (MitoSciences Inc., Eugene, OR, USA) was used as per the manufacturer’s instructions[54][55]. Briefly, J774A.1 cells were seeded (approximately 40,000 cells per well) in 96-well plates and allowed to adhere. […] Cells were allowed to grow for approximately 3 days. Media were removed and cells were washed with PBS, then fixed with 4% paraformaldehyde. After fixing, cells were washed with PBS and permeabilization and blocking processes were done according to the manufacturer’s instructions. Primary antibodies to detect the levels of two proteins (subunit I of Complex IV (COX-I), that is mitochondrial DNA (mtDNA)-encoded), and the 70 kDa subunit of Complex II (SDH-A), a nuclear DNA (nDNA)-encoded were added and incubated for overnight at 4 °C. After incubation, cells were washed with PBS and secondary antibodies were added and incubated at room temperature for one hour. After washing, the expression of SDH-A and COX-1 were measured at 405 nm and 600 nm wavelength, respectively. The ratio between COX-I and SDH-A was calculated and the percent of inhibition of mitochondrial biogenesis was determined.
Series [2] deals with clinical isolates of L. monocytogenes. The class given is cell-based, Listeria monocytogenes. The note with it: for MIC50: concentration required to inhibit 50% of L. monocytogenes isolates (six isolates); for MIC: broth microdilution in low binding tubes, triplicates, 16 hour incubation. Here is the method: (§1) The MICs of conjugated PNAs, free PNA, CPPs and untreated control against L. monocytogenes were determined using the broth microdilution method according to the Clinical and Laboratory Standards Institute (CLSI) guidelines with the following modifications. Briefly, low binding clear microcentrifuge tubes (USA scientific, Inc. Ocala, FL) were used in triplicates for each reaction instead of traditional 96-well plates. […] After a 16 hour incubation period (of test agent with bacteria), the number of viable bacteria was enumerated by serial dilution and counting on TSA plates. The MICs were repeated at least twice.
For orientation: Broth dilution looks for growth in wells or tubes with falling amounts of substance.

For series [3], the system named is L. monocytogenes F4244. The series can be described thus: Concentration-dependent bacterial log reduction in pure culture. Format: cell-based, Listeria monocytogenes. Conditions: for Log CFU/ml: pure culture F4244, 16 hour incubation; for Log CFU reduction: relative to control, pure culture F4244. As to the method:
as §1

Series [4] has as its system L. monocytogenes F4244. The series is described as follows: Time kill assay. Format: cell-based, Listeria monocytogenes. Conditions: 12 hours; for time to complete eradication of Listeria: 32 μM PNA, 37 °C, samples every 2 hours, ~10^5 CFU/ml; for bactericidal or bacteriostatic activity: L. monocytogenes, time kill at 32 μM. Here is the method:
L. monocytogenes F4244 in logarithmic growth phase was diluted to ~10^5 CFU/ml and incubated with 32 μM of the five PNAs (in triplicates) at 37 °C for 12 hours. Samples were collected every two hours, serially diluted, and plated onto TSA plates. Plates were then incubated wat 37 °C for 24 hours before viable CFUs were determined.
Samples were collected every 20 minutes and processed as above.

In series [5] the test system is hly. The series can be described thus: Real-Time qRT-PCR gene expression, hly. Format: cell-based, L. monocytogenes F4244. Conditions: 2 μM PTAT, 3.5 hours, 37 °C. (In qPCR the cycle at which signal appears reflects the starting amount.)
Series [6] deals with plcA. The series is described as follows: Real-Time qRT-PCR gene expression, plcA. The class given is cell-based, L. monocytogenes F4244. Conditions: 2 μM PTAT, 3.5 hours, 37 °C.
Series [7] has as its system plcB. The series is described as follows: Real-Time qRT-PCR gene expression, plcB. Format: cell-based, L. monocytogenes F4244. Conditions: 3.5 hours, 37 °C.
For series [8], the system named is L. monocytogenes F4244 inside infected J774A.1 cells. The class given is cell-based. Conditions: 4 hours; for Log CFU/ml: intracellular F4244 in J774A.1; for Log CFU reduction: intracellular F4244 in J774A.1, versus control.
Series [9] relates to rpoA. The note with it: 3.5 hours, 37 °C.
Series [10] deals with L. monocytogenes F4244. The series is described as follows: Time kill assay. The note with it: 8 μM PNA, 37 °C, samples every 20 minutes, inoculum 2.4 × 10^5 CFU/ml. The class given is cell-based, Listeria monocytogenes.
For series [11], the system named is L. monocytogenes J0161 in infected C. elegans. The series is described as follows: C. elegans infection model. The note with it: 18 hours treatment; for Log CFUs/worm: 10 worms in triplicates; for Log CFUs reduction: versus water.
Procedure: To test the efficacy of PNA in vivo we used Listeria-infected C. elegans. The temperature-sensitive sterile mutant strain C. elegans AU37 [sek-1(km4); glp-4(bn2) I] was used for this study. This strain is sterile at room temperature and can lay eggs only at 15 °C. Furthermore, mutation in the sek-1 gene of the p38 mitogen-activated protein kinase pathway (p38 MAPK pathway), makes this particular C. elegans strain more susceptible to Listeria infection[49][56]. Initially, the pathogenicity of three strains of Listeria (F4244, J0161 and ATCC19111) was tested in C. elegans as described before[24] to determine the most virulent strain to use for this study. […] Briefly, adult worms were grown for 5 days, at 15 °C (temperature that permits worms to lay eggs) on NGM agar plates seeded with a lawn of E. coli OP50. The eggs were harvested by bleaching[57] and maintained for 24 hours at room temperature with gentle agitation for hatching. Hatched larvae were transferred to a new NGM plate seeded with E. coli OP50 and were kept at room temperature for five days until worms reached the adult stage of growth. Adult worms were collected and washed three times with M9 media in a 1:10 ratio to remove E. coli before transfer to LB agar plates seeded with a lawn of L. monocytogenes J0161 for infection. After eight hours of infection, worms were collected and washed with M9 buffer five times before incubation with PNAs. Worms were transferred to low-binding microcentrifuge tubes (10 worms per tube). […] After treatment for 18 hours, worms were washed five times with M9 buffer. […] Samples were serially diluted and plated onto TSA plates containing 5 μg/ml nalidixic acid to select for Listeria.
Series [12] relates to cytoplasmic membrane of L. monocytogenes F4244. The series can be described thus: Calcein leakage assay. The class given is cell-based, Listeria monocytogenes. The note with it: 30 min exposure; PRXR 8 × MIC (8 μM), nisin 5 × MIC (10 μg/ml); fluorescence, n = 3. As to the method: To investigate the effect of PNA on the integrity of the Listeria cell membrane, the leakage of the preloaded fluorescent dye, calcein, was monitored and quantified as described before with a few modifications. Briefly, 20 ml of logarithmic growth phase (OD600 = 1.0, ~10^9 CFU/ml) L. monocytogenes F4244 was centrifuged and bacteria were resuspended in 9 ml of sterile PBS plus 1 ml of BHI. 3 μM of calcein AM dye was added to the bacterial suspension prior to covering the suspension with aluminum foil and incubating for one hour at 37 °C. After 10 minutes centrifugation at 3,000 × g, the supernatant was discarded. The calcein-loaded bacterial cells were resuspended in 30 ml of sterile PBS and 100 μL calcein-loaded bacteria were distributed in a 96-well microtiter plate (in triplicate). PRXR was added in a concentration equal to 8 × MIC (8 μM). Nisin 5 × MIC (10 μg/ml) and sterile water were used as positive and negative controls, respectively. Intensity of fluorescence (calcein leakage) was detected every 5 minutes for 30 minutes using a fluorescence plate reader (FLx800 model BioTek® Instruments, Inc. Winooski, Vermont) with the excitation and emission filters adjusted to 485 nm and 520 nm, respectively.

On to `CC(=O)NC[C@H]1CN(c2ccc(N3CCOCC3)c(F)c2)C(=O)O1` [Linezolid, linezolid], for which the “inhibition of mitochondrial protein synthesis (mitobiogenesis)” value (shortened to “inhibition”) in series [1] amounted to 65%.
For the compound `CC1(C)S[C@@H]2[C@H](NC(=O)[C@H](N)c3ccccc3)C(=O)N2[C@H]1C(=O)O` [ampicillin], the “inhibition” value in [1] was “does not significantly inhibit mitobiogenesis”.
What is called MIC50 is the lowest concentration that inhibits either 50% of growth or 50% of the strains tested, depending on the study. One may read the MIC as the lowest concentration found to suppress growth. As to GRKKKRRQRRRYK-O-cgatcattcaaa-NH2 [PTAT], in series [2], the MIC50 was 2 µM. For the same compound, the MIC in series [2] (strain ATCC 13932) amounted to 4 µM; in series [2] (strain ATCC 19111), 4 µM; in series [2] (strain ATCC 19112), 2 µM; in series [2] (strain ATCC 19114), 0.5 µM; in series [2] (strain F4244, no turbidity), 2 µM; in series [2] (strain J0161) it was 4 µM. Moreover, the “Log CFU/ml” value in series [3] (1 µM PNA) was 8.28±0.37 Log CFU/ml; in series [3] (2 µM PNA) it was 5.94±0.42 Log CFU/ml; in [3] (4 µM PNA) it was “Cleared”; in [3] (8 µM PNA), “Cleared”; in [3] (16 µM PNA), “Cleared”; in series [3] (32 µM PNA), “Cleared”. Moreover, the “Log CFU/ml” value in [8] (2 μM) stood at 5.95 ± 0.02 Log CFU/ml; in series [8] (4 μM), 5.19 ± 0.33 Log CFU/ml; in series [8] (8 μM), 4.22 ± 0.11 Log CFU/ml. Also, the “Log CFU reduction” value in [3] (1 µM PNA) was 1.1 Log CFU; in series [3] (2 µM PNA), 3.45 Log CFU; in series [3] (4 µM PNA) it was 9.39 Log CFU; in series [3] (8 µM PNA) it was 9.39 Log CFU; in series [3] (16 µM PNA) it was 9.39 Log CFU; in series [3] (32 µM PNA) it was 9.39 Log CFU. The “Log CFU reduction” value in [8] (2 μM) was 0.78 Log CFU; in series [8] (4 μM), 1.54* Log CFU; in series [8] (8 μM), 2.51* Log CFU. Also, the “time to complete eradication of Listeria” value in series [4] is no more than 2 h. Moreover, the “bactericidal or bacteriostatic activity” value in series [4] is on record as “bactericidal activity”. Further, in series [5], the “downregulation of hly gene” value is “more than 50%”. In series [6], the “decrease of plcA gene expression” value is listed as “more than 70%”. Also, in series [7] (1 μM PTAT), the “reduction in plcB gene expression” value stood at 55.9%. In addition, the “decrease of plcB gene expression” value in [7] (2 μM PTAT) is “more than 70%”. In addition, the “percentage of gene expression of rpoA” value in [9] (1 μM PTAT) is “more than 50%”; in [9] (4 μM PTAT) it was “less than 5%”. Further, the “reduction in rpoA gene expression” value in [9] (1 μM PTAT) was 50% and 43.7%. In addition, in series [10], the “time to complete elimination of starting inoculum” value was no more than 20 min. Besides, the “Log CFUs/worm” value is 3.04±0.36 Log CFUs/worm in series [11] (16 µM) and 1.7±0.6 Log CFUs/worm in [11] (32 µM). Moreover, the “Log CFUs reduction” value in [11] (16 µM) was 1.11 Log CFUs; in series [11] (32 µM), 2.67 Log CFUs. Besides, the “inhibition” value in series [1] is on record as “does not interfere with the mitochondrial protein synthesis process”.
With “RFRRFRRFRRFRXB-O-cgatcattcaaa-NH2 [PRFR]”, the MIC50 in series [2] is 4 µM. In addition, the MIC in series [2] (strain ATCC 13932) was determined as 4 µM; in series [2] (strain ATCC 19111), 8 µM; in [2] (strain ATCC 19112), 4 µM; in series [2] (strain ATCC 19114), 1 µM; in series [2] (strain F4244, no turbidity), 2 µM; in series [2] (strain J0161), 16 µM. The “Log CFU/ml” value in [3] (1 µM PNA) is reported as 9.26±0.09 Log CFU/ml; in series [3] (2 µM PNA) it was 7.48±0.69 Log CFU/ml; in [3] (4 µM PNA), 6.10±0.63 Log CFU/ml; in series [3] (8 µM PNA), “bacterial clearance; also recorded: Cleared”; in [3] (16 µM PNA), “Cleared”; in series [3] (32 µM PNA) it was “Cleared”. Also, the “Log CFU/ml” value in series [8] (2 μM) amounted to 5.89 ± 0.65 Log CFU/ml; in series [8] (4 μM) it was 5.10 ± 0.28 Log CFU/ml; in series [8] (8 μM), 4.29 ± 0.04 Log CFU/ml. Besides, the “Log CFU reduction” value is recorded as 0.13 Log CFU in series [3] (1 µM PNA); 1.91 Log CFU in series [3] (2 µM PNA); 3.29 Log CFU in [3] (4 µM PNA); 9.39 Log CFU in series [3] (8 µM PNA); 9.39 Log CFU in [3] (16 µM PNA); 9.39 Log CFU in series [3] (32 µM PNA). Moreover, the “Log CFU reduction” value in series [8] (2 μM) is recorded as 0.84 Log CFU; in series [8] (4 μM) it was 1.63* Log CFU; in [8] (8 μM), 2.43* Log CFU. In addition, the “time to complete eradication of Listeria” value in [4] was no more than 2 h. For the same compound, the “bactericidal or bacteriostatic activity” value in [4] is reported as “bactericidal activity”. For the same compound, in series [10], the “time to complete elimination of starting inoculum” value was no more than 20 min. For the same compound, the “Log CFUs/worm” value in [11] (16 µM) worked out at 2.85±0.60 Log CFUs/worm; in series [11] (32 µM) it was 1.86±0.26 Log CFUs/worm. Also, the entries for the “Log CFUs reduction” value in series [11] (16 µM) and in [11] (32 µM) were 1.3 Log CFUs and 2.52 Log CFUs, respectively.
For nisin [reference compound], the calcein leakage result in series [12] was “more than 72%”.
